Patent US8551999B2, “Heterocyclic compound and pharmaceutical composition thereof” (Otsuka Pharmaceutical Co., Ltd., priority 2007, dated 2013)

melting point	SMILES
261.6 to 264.7 °C	Br.Cn1c(C(=O)N2CCN(Cc3ccc(OC(F)(F)F)cc3)CC2)cc2ccc(Oc3ccc(NC(=O)c4ccc(Cl)c(Cl)c4)cn3)cc21 [Example 264, 3,4-Dichloro-N-(6-{1-methyl-2-[4-(4-trifluoromethoxybenzyl)-piperazine-1-carbonyl]-1H-indol-6-yloxy}pyridin-3-yl)benzamide hydrobromide]
242.5 to 246.7 °C	Br.CC(C)Oc1ccc(CN2CCN(C(=O)c3cc4ccc(Oc5ccc(NC(=O)c6ccc(Cl)c(Cl)c6)cn5)cc4n3C)CC2)c(F)c1 [Example 265, 3,4-Dichloro-N-(6-{2-[4-(2-fluoro-4-isopropoxybenzyl)piperazine-1-carbonyl]-1-methyl-1H-indol-6-yloxy}pyridin-3-yl)benzamide hydrobromide]
244.3 to 247 °C	Br.CC(C)Oc1ccc(CN2CCN(C(=O)c3cc4ccc(Oc5ccc(NC(=O)c6ccc(Cl)c(Cl)c6)cn5)cc4n3C)CC2)cc1F [Example 266, 3,4-Dichloro-N-(6-{2-[4-(3-fluoro-4-isopropoxybenzyl)piperazine-1-carbonyl]-1-methyl-1H-indol-6-yloxy}pyridin-3-yl)benzamide hydrobromide]
214 to 219 °C (dec.)	Br.Cn1c(C(=O)N2CCN(Cc3ccc(OCC(F)(F)F)cc3)CC2)cc2cc(Oc3ccc(NC(=O)c4ccc(C(F)(F)F)cc4O)cn3)ccc21 [Example 267, 2-Hydroxy-N-[6-(1-methyl-2-{4-[4-(2,2,2-trifluoroethoxy)benzyl]-piperazine-1-carbonyl}-1H-indol-5-yloxy)pyridin-3-yl]-4-tri-fluoromethylbenzamide hydrobromide]
221.5 to 222.3 °C	Br.Cn1c(C(=O)N2CCN(Cc3ccc(OCC(F)F)cc3)CC2)cc2ccc(Oc3ccc(NC(=O)c4ccc(Cl)c(Cl)c4)cn3)cc21 [Example 268, 3,4-Dichloro-N-[6-(2-{4-[4-(2,2-difluoroethoxy)benzyl]piperazine-1-carbonyl}-1-methyl-1H-indol-6-yloxy)pyridin-3-yl]benzamide hydrobromide]
140.1 to 141.3 °C	Cc1ccc(C(=O)N(C)c2ccc(Oc3ccc4cc(C(=O)N5CCN(Cc6ccc(OC(F)F)cc6)CC5)n(C)c4c3)nc2)cc1 [Example 276, N-(6-{2-[4-(4-Difluoromethoxybenzyl)piperazine-1-carbonyl]-1-methyl-1H-indol-6-yloxy}pyridin-3-yl)-4,N-dimethylbenzamide]
198.7 to 200.5 °C	Br.CN(C(=O)c1ccc(OC(F)F)cc1)c1ccc(Oc2ccc3cc(C(=O)N4CCN(Cc5ccc(OC(F)F)cc5)CC4)n(C)c3c2)nc1 [Example 282, 4-Difluoromethoxy-N-(6-{2-[4-(4-difluoromethoxybenzyl)piperazine-1-carbonyl]-1-methyl-1H-indol-6-yloxy}pyridin-3-yl)-N-methyl-benzamide hydrobromide]
196.9 to 198.6 °C	Br.CN(C(=O)c1ccc(OC(F)F)cc1)c1ccc(Oc2ccc3cc(C(=O)N4CCN(Cc5ccc(OCC(F)F)cc5)CC4)n(C)c3c2)nc1 [Example 283, N-[6-(2-{4-[4-(2,2-Difluoroethoxy)benzyl]piperazine-1-carbonyl}-1-methyl-1H-indol-6-yloxy)pyridin-3-yl]-4-difluoromethoxy-N-methylbenzamide hydrobromide]
203.8 to 205.6 °C	Br.CN(C(=O)c1ccc(OC(F)F)cc1)c1ccc(Oc2ccc3cc(C(=O)N4CCN(Cc5ccc(OCC(F)(F)F)cc5)CC4)n(C)c3c2)nc1 [Example 284, 4-Difluoromethoxy-N-methyl-N-[6-(1-methyl-2-{4-[4-(2,2,2-tri-fluoroethoxy)benzyl]piperazine-1-carbonyl}-1H-indol-6-yloxy)-pyridin-3-yl]benzamide hydrobromide]
167 to 168.1 °C	CN(c1ccc(Oc2ccc3cc(C(=O)N4CCN(Cc5ccc(OCC(F)(F)F)cc5)CC4)[nH]c3c2)nc1)S(C)(=O)=O [Example 285, N-Methyl-N-[6-(2-{4-[4-(2,2,2-trifluoroethoxy)benzyl]piperazine-1-carbonyl}-1H-indol-6-yloxy)pyridin-3-yl]methanesulfonamide]
199.4 to 203.1 °C	Br.C[C@H]1CN(C(=O)c2cc3ccc(Oc4ccc(NC(=O)c5ccc(OC(F)(F)F)cc5)cn4)cc3n2C)CCN1Cc1ccc(OCC(F)(F)F)cc1 [Example 293, N-[6-(1-Methyl-2-{(S)-3-methyl-4-[4-(2,2,2-trifluoroethoxy)-benzyl]piperazine-1-carbonyl}-1H-indol-6-yloxy)pyridin-3-yl]-4-trifluoromethoxybenzamide hydrobromide]
213.5 to 215.3 °C	Br.Cc1cc(Oc2ccc3cc(C(=O)N4CCN(Cc5ccc(OC(F)F)cc5)CC4)n(C)c3c2)ncc1N(C)S(=O)(=O)c1ccc(Cl)c(Cl)c1 [Example 311, 3,4-Dichloro-N-(6-{2-[4-(4-difluoromethoxybenzyl)piperazine-1-carbonyl]-1-methyl-1H-indol-6-yloxy}-4-methylpyridin-3-yl)-N-methylbenzenesulfonamide hydrobromide]
151 to 151.6 °C	Cc1cc(Oc2ccc3cc(C(=O)N4CCN(Cc5ccc(OC(C)C)cc5)CC4)n(C)c3c2)ncc1N(C)S(=O)(=O)c1ccc(Cl)c(Cl)c1 [Example 313, 3,4-Dichloro-N-(6-{2-[4-(4-isopropoxybenzyl)piperazine-1-carbonyl]-1-methyl-1H-indol-6-yloxy}-4-methylpyridin-3-yl)-N-methylbenzenesulfonamide]
254 to 257 °C (dec.)	Br.Cn1c(C(=O)N2CCN(Cc3ccc4c(c3)OCO4)CC2)cc2cc(Oc3ccc(NC(=O)c4ccc(C(F)(F)F)cc4F)cn3)ccc21 [Example 316, N-{6-[2-(4-Benzo[1,3]dioxol-5-ylmethylpiperazine-1-carbonyl)-1-methyl-1H-indol-5-yloxy]pyridin-3-yl}-2-fluoro-4-trifluoromethyl-benzamide hydrobromide]
187 to 190 °C	Br.CN(C(=O)c1ccc(C(F)(F)F)cc1F)c1ccc(Oc2ccc3c(c2)cc(C(=O)N2CCN(Cc4ccc5c(c4)OCO5)CC2)n3C)nc1 [Example 319, N-{6-[2-(4-Benzo[1,3]dioxol-5-ylmethylpiperazine-1-carbonyl)-1-methyl-1H-indol-5-yloxy]pyridin-3-yl}-2-fluoro-N-methyl-4-tri-fluoromethylbenzamide hydrobromide]
233 to 235 °C	Br.COc1ccc(CN2CCN(C(=O)c3cc4ccc(Oc5ccc(N(C)C(=O)c6ccc(C(F)(F)F)cc6)cn5)cc4n3C)CC2)cc1 [Example 322, N-(6-{2-[4-(4-Methoxybenzyl)piperazine-1-carbonyl]-1-methyl-1H-indol-6-yloxy}pyridin-3-yl)-N-methyl-4-trifluoromethylbenzamide hydrobromide]
134 to 135 °C	COc1ccc(CN2CCN(C(=O)c3cc4cccc(Oc5ccc(N(C)C(=O)c6ccc(C(F)(F)F)cc6)cn5)c4n3C)CC2)cc1.O=C(O)C(=O)O [Example 323, N-(6-{2-[4-(4-Methoxybenzyl)piperazine-1-carbonyl]-1-methyl-1H-indol-7-yloxy}pyridin-3-yl)-N-methyl-4-trifluoromethylbenzamide oxalate]
